Structures are written as SMILES. Some results are limits rather than exact numbers.

By melting point is commonly meant the temperature of the solid-liquid transition. As to `COc1nc2cc(Cl)ccc2nc1N1CCN(C)CC1`, the melting point was in the range of 99.9 to 102 °C.
The value for `O=C(c1ccccc1)N1CCC(c2c[nH]c3cc(F)ccc23)CC1` was 220 °C; that for `Cc1nn(C)c(C(N)=O)c1[N+](=O)[O-]` was 153 to 155 °C; that for `COC(=O)Cn1c(C(=O)Nc2nc(-c3cc(OC)c(Cl)cc3OC)c(CC3CCCCC3)s2)cc2cc(C)cc(C)c21` was 143 to 145 °C.
For `C[C@@H](CO)Cn1c(C(=O)NCc2cc(C(F)(F)F)cc(C(F)(F)F)c2)c(-c2ccccc2)c2cccnc2c1=O` the value was 101 to 103 °C; for `COc1cccc2c3c(c(=O)[nH]c12)CCN3c1ccccc1C`, 166 to 168 °C; for `CCCS(=O)(=O)N1C[C@@H](C)C[C@H](Nc2ncccc2-c2cnc3[nH]ccc3n2)C1`, 178 to 180 °C.
For `COc1ccc(C(=O)Nc2cccnc2Cl)c2c1oc1ccccc12`, the melting point turned out to be 192 °C.
For `COc1cc2c(c(OC)c1)C1=C(CC2)C2=CCC(OC(C)=O)C2(C)CC1` (stereo not drawn) the value was 122 to 124 °C; for `CS(=O)c1ncc2ccc(=O)n(-c3ccccc3)c2n1` (stereo not drawn), 248 to 250 °C; for `Cc1cn([C@H]2C=C[C@@H](O)C2)c(=O)nc1N` (racemic), 190 to 192 °C.
The value for `CC=C1CC2C3CCc4cc(OC)ccc4C3CCC2(CC)C1=O` (stereo not drawn) was 155 to 157 °C; that for `O=C1N(Cc2ccccc2OC(F)(F)F)c2ccccc2C12COc1cc3c(cc12)OCO3` (stereo not drawn) was 88 to 91 °C.
In turn, `CC(NC(=O)c1cc(Cl)ccc1N)C1CC1` (stereo not drawn) gave a melting point of 135 °C.
For `OC1(CNc2c(Br)cnc3cc(Cl)ccc23)CCCCC1` the value was 151 to 154 °C; for `CC1(C)OC(=O)N[C@@H]1c1ccccc1`, 149 °C; for `Cc1ccc(CCCO)c(NCc2ccc3nc(NCCCN4CCOCC4)n(Cc4cccc5c4ncn5C)c3c2)c1`, 198 °C.
Compound `Cc1ccc(-c2c(C(=O)NCc3ccccc3)oc(=O)c3ncccc23)cc1` returned a melting point of 208 to 209 °C.
In turn, `Nc1cc(C(=O)O)cc(S(N)(=O)=O)c1-c1ccccc1` came in with a melting point of 232 to 237 °C.
For `N=C(N)c1nc2c(s1)CCc1c-2sc2ncnn12` the value was more than 300 °C; for `CC(=O)OCC1OC(c2nc(C(N)=O)cs2)C(OC(C)=O)C1OC(C)=O` (stereo not drawn), 103 °C.
The value for `COC(=O)C=C(C)C=CC1(O)C(C)=CC(=O)c2ccccc21` (stereo not drawn) was 147 to 148 °C; that for `O=S(=O)(O)c1ccc(Oc2ccc(-n3ccnc3)cc2)cc1` was 80 °C.
Consider `CS(=O)(=O)Nc1cccc2c1CCC[C@H]2c1c[nH]cn1`, for which the melting point lay within 118 to 123 °C.
For `NS(=O)(=O)OCCCOc1ccc(-n2ccnc2)cc1` the value was 105 to 106 °C; for `CC(C)(C)OC(=O)c1ccc(C(=O)NS(=O)(=O)c2ccccc2)cc1`, 141 to 143 °C.
For `OCC1OC(n2cnc3c(NCC4Cc5cccc6cccc4c56)ncnc32)C(O)C1O` (stereo not drawn) the value was 173 to 175 °C.
Regarding `Nc1ccc(OCCCl)cc1`, the melting point lay in the range of 91 to 92 °C.
In turn, `Cc1c(-n2c(C)ccc2C)cc(CC(C#N)=CNc2ccccc2)cc1-n1c(C)ccc1C` registered a melting point of 252 °C.
For the compound `Clc1ccccc1C1=NOCCS1`, the melting point lay within 51 to 52 °C.
For `CCOC(=O)C(=O)Nc1cccc(O)c1C(N)=O` the value was 200 to 202 °C.
For `CCOC(=O)Cn1c(=O)c(=O)[nH]c2cc(C(F)(F)F)c(-n3c(C)ccc3C)cc21` the value was 262 to 263 °C; for `Cn1c2c(cnc3c([N+](=O)[O-])cccc32)c(=O)n1C(=O)OC(C)(C)C`, more than 250 °C.
The value for `CCCN(CCC)c1ccc(Cl)nn1` was 49 to 51 °C; that for `ON=C(c1ccncc1)c1ccc(F)cc1F` was 155 to 200 °C; that for `CSc1ccc(N2CCc3ccccc32)c([N+](=O)[O-])c1` was 67 to 69 °C.
`CC(C)(C)[Si](C)(C)OC1CN(S(C)(=O)=O)Cc2nc3c(N)nc4ccccc4c3n2C1` (stereo not drawn): the melting point was 256 to 258 °C.
For `CC(CNC(=O)[C@@H]1CSC(=O)N1)O[N+](=O)[O-]` (stereo partly drawn) the value was 70 to 72 °C; for `COc1ccc2c(c1)c(Cc1nc(-c3ccc(Cl)cc3)cs1)c(C)n2C(=O)c1ccc(Cl)cc1`, 186 to 188 °C.
The value for `Cn1c(C(F)(F)F)cc(=O)n(-c2cc3c(cc2F)nc(C(F)(F)F)n3Cc2cccc(Cl)c2)c1=O` was 91 to 93 °C; that for `O=C1c2cc(OCc3ccccc3)ccc2OCC1Cn1ccnc1` (stereo not drawn) was 108 to 110 °C.
The value for `CS(=O)(=O)c1ccc(-c2cnn(CC(F)(F)F)c(=O)c2Cl)cc1` was 221 to 222 °C; that for `CCC(CC)Nc1c([N+](=O)[O-])cc(C)c(COC(=O)COc2ccc(Cl)cc2Cl)c1[N+](=O)[O-]` was 103 to 106 °C; that for `N#Cc1cnn(-c2c(Cl)cc(C(F)(F)F)cc2Cl)c1C=CC(=O)NS(=O)(=O)Cc1ccccc1` was 178 to 183 °C.
In turn, `CCCC(=O)c1c[nH]c2c(OC)csc2c1=O` showed a melting point of 222 to 225 °C.
The value for `COc1c(N2CCC(n3cc(C)nn3)C2)c(F)cc2c(=O)c(C(=O)O)cn(C3CC3)c12` (stereo not drawn) was 174 to 176 °C; that for `CCN(CC)c1nc(Cc2ccc(OC)c(OC)c2)nc2sc(C#N)c(C)c12` was 107 to 109 °C; that for `COC(=O)c1c(Cc2ccc(S(=O)(=O)CCO)cc2)c(=O)c2ccc(Cl)cc2n1-c1ccccc1` was 172 to 174 °C.
For `CNC(=O)CCc1c(-c2ccccc2)n(C)c(=O)c2ccccc12` the value was 185 to 186 °C; for `COc1cc(Oc2ccc(S(C)(=O)=O)nc2)cc2cc(C3=NCC(CC(=O)N4CCOCC4)S3)[nH]c12` (stereo not drawn), 148 to 149 °C.
In turn, `NS(=O)(=O)c1cccc(-c2noc(-c3cnn4c(C(F)F)cc(-c5ccc(Cl)cc5)nc34)n2)c1` gave a melting point of 231 °C.
`CCN(CC)c1ccc(-c2nc3ccc(OC(F)(F)F)cc3[nH]2)cc1` gave a melting point of 168 to 173 °C.
Compound `CCN1C[C@@H](SCc2ccc(OC)cc2)C[C@H]1C(N)=O` showed a melting point of 124 to 125 °C.
`CC(=O)NC1CCN(Cc2cnc3cc(NC(=O)c4ccc(-c5ccc(F)cc5)cc4)ccc3c2)C1` (stereo not drawn) registered a melting point of 250 to 253 °C.
For `O=C(Nc1ccccc1C(c1ccc(O)cc1)c1ccc(O)cc1)C12CC3CC(CC1C3)C2` the value was 155 to 157 °C; for `CC(C)(O)Cn1c(N)nc2c(N)nc3c(c21)CCCC3`, more than 270 °C.
The value for `CCOC(=O)c1ncc(C)nc1O` was 153 °C.
Regarding `CC(C)NC(=O)c1ccccc1`, the melting point was 101 to 103 °C.
On to `NC1=NN(c2ccccc2)C(c2ccc(Cl)c(Cl)c2)C1` (stereo not drawn), for which the melting point was in the range of 150 to 152 °C.
For `Cc1nc(C(F)(F)F)ccc1C(=O)C1=C(Sc2ccccc2)CCCC1=O` the value was 124 to 125 °C; for `CC(C)(C)OC(=O)N(CCCCCCN1C(=O)c2ccccc2C1=O)CCN(CCCCCCN1C(=O)c2ccccc2C1=O)C(=O)OC(C)(C)C`, 96 °C.
`CNC1(c2ccccc2Cl)C(=O)N(S(=O)(=O)c2ccc(OC)cc2OC)c2c(F)cc(Cl)cc21` (stereo not drawn) registered a melting point of 183 to 185 °C.
`N#Cc1csc(N2C(=O)C(Cc3ccccc3)NC2=S)n1` (stereo not drawn): the melting point lay within 214 to 216 °C.
The value for `CCOP(=O)(CCc1cn(-c2ccccc2)nc1O)OCC` was 121 to 122 °C.
For `COc1cccc2c(CCOCc3ccc(-c4ccccc4)cc3)coc12` the value was 77 to 78 °C.
`CC(C)(C)OC(=O)NCCCCCN(OCc1ccccc1)C(=O)CCC(=O)O` had a melting point of 93 to 94 °C.
The value for `O=C1NCCN1Cc1ccc2ccccc2c1` was 149 to 152 °C; that for `CC(C)c1cccc(C(C)C)c1NC(=O)C(Cc1ccc(OCc2ccccc2)cc1)NC(=O)CC(C)(C)C` (stereo not drawn) was 209 to 212 °C; that for `CCC1(C)CC(=O)C(C(=O)Nc2ccc(Cl)c(Cl)c2)C(=O)C1` (stereo not drawn) was 74 to 75 °C.
For `CC(=O)Nc1nc(-c2cc(C)cc(C)c2)c(-c2ccncc2)s1` the value was 284 to 286 °C; for `CCOC(=O)C1CCC2(C)C(=CC(=O)C3C4CCC(=O)C4(C)CCC32)C1` (stereo not drawn), 187 to 188 °C.
For `O=C1C(=O)N(Cc2ccc(Br)cc2F)c2c1cccc2C(F)(F)F` the value was 141 to 143 °C.
The compound `CC(C)(C)OC(=O)NC(=N)c1ccc(C(=O)O)cc1` displayed a melting point of more than 200 °C.
For `CCc1nccn1-c1ccc(NC(=O)NC)cc1` the value was 228 to 232 °C.
For `Cc1c(C)c2c(c(C)c1OCc1ccccc1)C(=O)CC(C)(COC(C)(C)C)O2` (stereo not drawn) the value was 51 to 62 °C.
`CCOP(=O)(Cc1ccc2nc(-c3ccc(OC)cc3)oc2c1)OCC` registered a melting point of 86 to 88 °C.
`COc1cccc(C2(CC(=O)O)CCCC2C(=O)O)c1` (stereo not drawn) showed a melting point of 175 to 180 °C.
For `C[C@@H]1NC(=O)[C@H]2Cc3c([nH]c4ccccc34)[C@@H](c3ccc4occc4c3)N2C1=O` the value was 150 to 151 °C.
On to `CNC(=O)N1CC[C@H](OCc2cc(C(F)(F)F)cc(C(F)(F)F)c2)[C@H](Cc2ccccc2)C1` (relative stereo), for which the melting point was in the range of 160 to 161 °C.
In turn, `Cc1nc2cccc(S(N)(=O)=O)c2s1` came in with a melting point of 223 to 224 °C.
The value for `C=CCN1C(=O)C2CC2(c2ccc(N)cc2)C1=O` (stereo not drawn) was 104 to 106 °C.
With `Cc1nn2c(C(F)(F)F)cc(-c3ccc(F)c(Cl)c3)nc2c1C#N`, the melting point is 196 °C.
For `CC1Oc2ccc(Cn3ccnc3)cc2NC1N` (stereo not drawn) the value was 152 to 156 °C; for `CC(C)=CCN1Cc2c(Cl)ccc3[nH]c(=S)n(c23)C[C@@H]1C`, 160 °C; for `COc1ccc(CC(=O)c2ccc(OC)c(F)c2)cc1`, 142 to 143 °C.
The value for `O=C(Cn1cc[nH]c(=O)c1=O)OC(c1ccccc1)c1ccccc1` was 97 to 98 °C; that for `COc1ccc(Cl)cc1NC(=NN)c1cc(C(F)(F)F)cc(C(F)(F)F)c1` was 117 to 120 °C; that for `Oc1c(Cl)cc(Cn2c(=S)sc3ccccc32)cc1Cl` was 169 to 172 °C.

The record behind these values is a melting point compilation (Tetko et al.; mined from patent text by program, amines drawn as free bases though some values may be those of a salt).
